System: hypertensive subjects
Assay: 24-hour ambulatory blood pressure monitoring (ABPM), incl. nighttime dip
Format: in vivo, human
Experimental: Ambulatory blood pressure monitoring was accomplished with an ambulatory blood pressure monitoring device that consists of a blood pressure cuff worn on a subject's arm attached to a small recording device that is typically attached to the subject's belt or waistband.
The ABPM device is worn for 24 hours. Throughout that period, the device records the subject's blood pressure at regular intervals, during the subject's routine daily activities and while they are sleeping. The ABPM thus provides a complete record of the subject's blood pressure over a 24-hour period.
24-hour ABPM was measured in the clinic at baseline and Study Week 7. If, for any reason, the ABPM procedure was deemed a failure at the end of Study Week 7, it may have been repeated at Study Week 8 and therefore no imputation was employed regardless of use of rescue medications. Additionally, ABPM was also collected at the end of Study Week 4 in Part 2. If a repeat test was performed, it supersedes the original test results for that visit.
Specific derived variables based on ABPM measurements include mean 24-hour, mean Daytime, and mean Nighttime of SBP, DBP, and heart rate.
Change from baseline to Week 7 in 24-hour mean SBP (and DBP) based on ABPM will be analyzed using an ANCOVA with a term for treatment group and a baseline mean 24-hour value as a covariate.
The nighttime dip is defined as
100%×(mean daytime SBP−mean nighttime SBP)/mean daytime SBP
It is expressed as a percentage and is summarized by treatment group and visit using descriptive statistics. In addition, the number and percentage of subjects with nighttime dip in each of the dipper categories (Bloomfield & Park, 2015) is presented by treatment group and visit. The categories are: • (a) <10% • (b) 10-20% inclusive • (c) >20%
Secondary endpoints of this study were: • (a) Change in 24-hour ambulatory blood pressure monitoring (ABPM) parameters (systolic and diastolic) from baseline to the end of Study Week 7. • (b) Change in office-measured SBP from baseline to the end of Study Weeks 1, 2, 3, 4, 5, 6, and 7. • (c) Change in office-measured diastolic blood pressure (DBP) from baseline to the end of Study Weeks 1, 2, 3, 4, 5, 6, 7, and 8. • (d) Proportion of subjects who achieve office-measured BP of ≤130/80 mm Hg by the end of Study Week 8.

[1] = 50 mg QD, End of Treatment, Part 1, FAS post-hoc
[2] = 100 mg QD Part 2, End of Treatment, FAS post-hoc
[3] = 100 mg QD, End of Treatment, Part 1, FAS post-hoc

CC(=O)N[C@H]1CC[C@H](NC(=O)CN2CCN(c3nncc(-c4ccc(C)cc4)n3)CC2)CC1 [Compound A HBr]
LSM Δ with Placebo, 24-hr Mean MAP (ABPM, ANCOVA) [1]: −3.48 mmHg
LSM Δ with Placebo, 24-hr SBP (ABPM, ANCOVA) [1]: −3.85 mmHg
LSM Δ with Placebo, Daytime Mean DBP (ABPM, ANCOVA) [1]: −4.18 mmHg
LSM Δ with Placebo, Daytime Mean SBP (ABPM, ANCOVA) [1]: −6.85 mmHg
LSM Δ with Placebo, Mean Central DBP (ABPM, ANCOVA) [1]: −2.58 mmHg
LSM Δ with Placebo, Mean Central Mean BP (ABPM, ANCOVA) [1]: −4.11 mmHg
LSM Δ with Placebo, Mean Central SBP (ABPM, ANCOVA) [1]: −5.46 mmHg
LSM Δ with Placebo, Nighttime Mean DBP (ABPM, ANCOVA) [1]: 0.15 mmHg
LSM Δ with Placebo, Nighttime Mean SBP (ABPM, ANCOVA) [1]: 2.37 mmHg
24-hr Mean DBP (ABPM), Mean (SD) (50 mg QD, EoT, Part 1, FAS): 77.75 (9.33) mmHg
24-hr Mean MAP (ABPM), Mean (SD) (50 mg QD, EoT, Part 1, FAS): 104.55 (11.74) mmHg
24-hr Mean SBP (ABPM), Mean (SD) (50 mg QD, EoT, Part 1, FAS): 131.36 (15.58) mmHg
Daytime Mean DBP (ABPM), Mean (SD) (50 mg QD, EoT, Part 1, FAS): 79.50 (9.08) mmHg
Daytime Mean SBP (ABPM), Mean (SD) (50 mg QD, EoT, Part 1, FAS): 132.32 (14.36) mmHg
Nighttime Mean DBP (ABPM), Mean (SD) (50 mg QD, EoT, Part 1, FAS): 74.25 (13.08) mmHg
Nighttime Mean SBP (ABPM), Mean (SD) (50 mg QD, EoT, Part 1, FAS): 129.54 (21.68) mmHg
Subjects with nighttime dip 10-20% in 24-hour systolic ABPM (50 mg QD, EoT, Part 1, FAS): 6 (21.4) n (%)
Subjects with nighttime dip <10% in 24-hour systolic ABPM (50 mg QD, EoT, Part 1, FAS): 22 (78.6) n (%)
Subjects with nighttime dip >20% in 24-hour systolic ABPM (50 mg QD, EoT, Part 1, FAS): 0 n (%)
24-hr Mean DBP (ABPM) CFB to EoT, Mean (SD) (50 mg QD, Part 1, FAS): −3.00 (8.52) mmHg
24-hr Mean MAP (ABPM) CFB to EoT, Mean (SD) (50 mg QD, Part 1, FAS): −2.39 (11.80) mmHg
24-hr Mean SBP (ABPM) CFB to EoT, Mean (SD) (50 mg QD, Part 1, FAS): −1.79 (15.82) mmHg
Daytime Mean DBP (ABPM) CFB to EoT, Mean (SD) (50 mg QD, Part 1, FAS): −4.11 (6.81) mmHg
Daytime Mean SBP (ABPM) CFB to EoT, Mean (SD) (50 mg QD, Part 1, FAS): −4.54 (13.59) mmHg
Nighttime Mean DBP (ABPM) CFB to EoT, Mean (SD) (50 mg QD, Part 1, FAS): 0.00 (12.34) mmHg
Nighttime Mean SBP (ABPM) CFB to EoT, Mean (SD) (50 mg QD, Part 1, FAS): 2.44 (22.25) mmHg
LSM Δ with 100 mg QD Part 1, 24-hr Mean AP (ABPM, ANCOVA) [2]: 3.33 mmHg
LSM Δ with 100 mg QD Part 1, 24-hr Mean DBP (ABPM, ANCOVA) [2]: 4.26 mmHg
LSM Δ with 100 mg QD Part 1, 24-hr Mean SBP (ABPM, ANCOVA) [2]: 4.13 mmHg
LSM Δ with 100 mg QD Part 1, Daytime Mean DBP (ABPM, ANCOVA) [2]: 3.92 mmHg
LSM Δ with 100 mg QD Part 1, Daytime Mean SBP (ABPM, ANCOVA) [2]: 1.64 mmHg
LSM Δ with 100 mg QD Part 1, Mean Central DBP (ABPM, ANCOVA) [2]: 4.53 mmHg
LSM Δ with 100 mg QD Part 1, Mean Central Mean BP (ABPM, ANCOVA) [2]: 3.98 mmHg
LSM Δ with 100 mg QD Part 1, Mean Central SBP (ABPM, ANCOVA) [2]: 4.68 mmHg
LSM Δ with 100 mg QD Part 1, Nighttime Mean DBP (ABPM, ANCOVA) [2]: 5.04 mmHg
LSM Δ with 100 mg QD Part 1, Nighttime Mean SBP (ABPM, ANCOVA) [2]: 8.91 mmHg
LSM Δ with Placebo, 24-hr DBP (ABPM, ANCOVA) [3]: −5.23 mmHg
LSM Δ with Placebo, 24-hr Mean MAP (ABPM, ANCOVA) [3]: −5.45 mmHg
LSM Δ with Placebo, 24-hr SBP (ABPM, ANCOVA) [3]: −5.33 mmHg
LSM Δ with Placebo, Daytime Mean DBP (ABPM, ANCOVA) [3]: −4.98 mmHg
LSM Δ with Placebo, Daytime Mean SBP (ABPM, ANCOVA) [3]: −4.12 mmHg
LSM Δ with Placebo, Mean Central DBP (ABPM, ANCOVA) [3]: −7.01 mmHg
LSM Δ with Placebo, Mean Central Mean BP (ABPM, ANCOVA) [3]: −7.77 mmHg
LSM Δ with Placebo, Mean Central SBP (ABPM, ANCOVA) [3]: −7.79 mmHg
LSM Δ with Placebo, Nighttime Mean DBP (ABPM, ANCOVA) [3]: −5.68 mmHg
LSM Δ with Placebo, Nighttime Mean SBP (ABPM, ANCOVA) [3]: −7.36 mmHg
24-hr Mean DBP (ABPM), Mean (SD) (100 mg QD, EoT, Part 1, FAS): 75.92 (8.42) mmHg
24-hr Mean MAP (ABPM), Mean (SD) (100 mg QD, EoT, Part 1, FAS): 105.48 (8.26) mmHg
24-hr Mean SBP (ABPM), Mean (SD) (100 mg QD, EoT, Part 1, FAS): 135.04 (11.25) mmHg
Daytime Mean DBP (ABPM), Mean (SD) (100 mg QD, EoT, Part 1, FAS): 78.79 (9.44) mmHg
Daytime Mean SBP (ABPM), Mean (SD) (100 mg QD, EoT, Part 1, FAS): 139.42 (11.65) mmHg
Nighttime Mean DBP (ABPM), Mean (SD) (100 mg QD, EoT, Part 1, FAS): 69.00 (9.04) mmHg
Nighttime Mean SBP (ABPM), Mean (SD) (100 mg QD, EoT, Part 1, FAS): 124.50 (14.93) mmHg
Subjects with nighttime dip 10-20% in 24-hour systolic ABPM (100 mg QD, EoT, Part 1, FAS): 11 (45.8) n (%)
Subjects with nighttime dip <10% in 24-hour systolic ABPM (100 mg QD, EoT, Part 1, FAS): 11 (45.8) n (%)
Subjects with nighttime dip >20% in 24-hour systolic ABPM (100 mg QD, EoT, Part 1, FAS): 2 (8.3) n (%)
24-hr Mean DBP (ABPM), Mean (100 mg QD, EoT, Part 2, FAS): 77.07 mmHg
24-hr Mean MAP (ABPM), Mean (100 mg QD, EoT, Part 2, FAS): 104.83 mmHg
24-hr Mean SBP (ABPM), Mean (100 mg QD, EoT, Part 2, FAS): 132.59 mmHg
Daytime Mean DBP (ABPM), Mean (100 mg QD, EoT, Part 2, FAS): 79.41 mmHg
Daytime Mean SBP (ABPM), Mean (100 mg QD, EoT, Part 2, FAS): 135.22 mmHg
Nighttime Mean DBP (ABPM), Mean (100 mg QD, EoT, Part 2, FAS): 71.85 mmHg
Nighttime Mean SBP (ABPM), Mean (100 mg QD, EoT, Part 2, FAS): 126.04 mmHg
24-hr Mean DBP (ABPM) CFB to EoT, Mean (SD) (100 mg QD, Part 1, FAS): −5.92 (8.44) mmHg
24-hr Mean MAP (ABPM) CFB to EoT, Mean (SD) (100 mg QD, Part 1, FAS): −7.40 (10.04) mmHg
24-hr Mean SBP (ABPM) CFB to EoT, Mean (SD) (100 mg QD, Part 1, FAS): −8.88 (11.90) mmHg
Daytime Mean DBP (ABPM) CFB to EoT, Mean (SD) (100 mg QD, Part 1, FAS): −4.96 (8.74) mmHg
Daytime Mean SBP (ABPM) CFB to EoT, Mean (SD) (100 mg QD, Part 1, FAS): −7.08 (12.60) mmHg
Nighttime Mean DBP (ABPM) CFB to EoT, Mean (SD) (100 mg QD, Part 1, FAS): −6.57 (9.97) mmHg
Nighttime Mean SBP (ABPM) CFB to EoT, Mean (SD) (100 mg QD, Part 1, FAS): −11.48 (13.87) mmHg
24-hr Mean DBP (ABPM) CFB to EoT, Mean (100 mg QD, Part 2, FAS): 1.33 mmHg
24-hr Mean MAP (ABPM) CFB to EoT, Mean (100 mg QD, Part 2, FAS): 1.81 mmHg
24-hr Mean SBP (ABPM) CFB to EoT, Mean (100 mg QD, Part 2, FAS): 2.30 mmHg
Daytime Mean DBP (ABPM) CFB to EoT, Mean (100 mg QD, Part 2, FAS): 1.67 mmHg
Daytime Mean SBP (ABPM) CFB to EoT, Mean (100 mg QD, Part 2, FAS): 2.41 mmHg
Nighttime Mean DBP (ABPM) CFB to EoT, Mean (100 mg QD, Part 2, FAS): 1.04 mmHg
Nighttime Mean SBP (ABPM) CFB to EoT, Mean (100 mg QD, Part 2, FAS): 1.52 mmHg
Change in BP, ABPM (night) BPsys, Mean (sem) (100 mg QD, Week 8, FAS): −11.5 (2.5) mmHg
Proportion of Subjects with Nighttime Dip in 24-hour Systolic Ambulatory Blood Pressure 10-20% (Part 2, 100 mg QD, EoT): (33.3) %
Proportion of Subjects with Nighttime Dip in 24-hour Systolic Ambulatory Blood Pressure <10% (Part 2, 100 mg QD, EoT): (66.7) %
Proportion of Subjects with Nighttime Dip in 24-hour Systolic Ambulatory Blood Pressure 10-20% (Part 2, 100 mg QD, Week 4): (24.0) %
Proportion of Subjects with Nighttime Dip in 24-hour Systolic Ambulatory Blood Pressure <10% (Part 2, 100 mg QD, Week 4): (72.0) %
Proportion of Subjects with Nighttime Dip in 24-hour Systolic Ambulatory Blood Pressure >20% (Part 2, 100 mg QD, Week 4): (4.0) %
